From patent US11136311B2, “Heteroaromatic derivatives as NIK inhibitors” (Janssen Pharmaceutica NV, priority 2016, dated 2021)
Like-named read-outs stand apart in the source and are kept apart here.

Key:
[1] = system: P-IKKα levels in L363 cells; experiment: Effect of compounds on P-IKKα levels in L363 (NIK translocated multiple myeloma) cells; type: cell-based, human; conditions: averaged values, read-out: Inhibition of pIKKα_L-363 (IC50 (nM))
Experimental: Effect of compounds on P-IKKα levels in L363 (NIK translocated multiple myeloma) cells
All compounds tested were dissolved in DMSO and further dilutions were made in culture medium. Final DMSO concentration was 1% (v/v) in cell assays. The human L363 cells (ATCC) were cultured in RPMI 1640 medium supplemented with GlutaMax and 10% fetal calf serum (PAA). Cells were routinely maintained at densities of 0.2×10^6 cells per ml-1×10^6 cells per ml at 37° C. in a humidified 5% CO2 atmosphere. Cells were passaged twice a week splitting back to obtain the low density. Cells were seeded in 96 well plates (Nunc 167008) at 2×10^6 per ml media in a volume of 75 μl per well plus 25 μl 1 μg/ml recombinant human B-cell activating factor (BAFF/BLyS/TNFSF13B). Seeded cells were incubated at 37° C. in a humidified 5% CO2 atmosphere for 24 hr. Drugs and/or solvents were added (20 μl) to a final volume of 120 μl. Following 2 hr treatment plates were removed from the incubator and cell lysis was achieved by the addition of 30 μl 5× lysis buffer followed by shaking on a plate shaker at 4° C. for 10 min. At the end of this incubation lysed cells were centrifuged at 800×g for 20 min at 4° C. and the lysate was assessed for P-IKKα levels by sandwich immuno-assay carried out in anti-rabbit antibody coated Mesoscale plates. Within an experiment, the results for each treatment were the mean of 2 replicate wells. For initial screening purposes, compounds were tested using an 8 point dilution curve (serial 1:3 dilutions). For each experiment, controls (containing MG132 and BAFF but no test drug) and a blank incubation (containing MG132 and BAFF and 10 μM ADS125117, a test concentration known to give full inhibition) were run in parallel. The blank incubation value was subtracted from all control and sample values. To determine the IC50 a sigmoidal curve was fitted to the plot of % inhibition of control P-IKKα levels versus Log10 compound concentration.

[2] = system: JJN-3 cells; experiment: Antiproliferative activity on JJN-3 (NIK translocated) multiple myeloma cells (CellTiter-Glo); type: cell-based, human; conditions: JJN-3 (NIK translocated) cells, 96 hr, averaged values, read-out: JJN-3 Proliferation inhibition (IC50 (nM))
Experimental: (§1) Determination of antiproliferative activity on JJN-3 (NIK translocated) and KMS12-BM (NIK WT) multiple myeloma cells
(§2) All compounds tested were dissolved in DMSO and further dilutions were made in culture medium. Final DMSO concentration was 0.3% (v/v) in cell proliferation assays. Viability was assessed using CellTiter-Glo cell viability assay kit (Promega). The human JJN-3 and KMS12-BM cells (DSMZ) were cultured in RPMI 1640 medium supplemented with 2 mM L-glutamine, and 10% fetal calf serum (PAA). Cells were routinely kept as suspension cells at 37° C. in a humidified 5% CO2 atmosphere. Cells were passaged at a seeding density of 0.2×10^6/ml twice a week. Cells were seeded in black tissue culture treated 96-well plates (Perkin Elmer). Densities used for plating ranged from 15000 (JJN3) to 20000 (KMS12BM) cells per well in a total volume of 135 μl medium. Drugs and/or solvents were added (15 μl) to a final volume of 150 μl. Following 96 hr of treatment, plates were removed from the incubator and allowed to equilibrate to room temperature for approx 10 min. 75 μl CellTiter-Glo reagent was added to each well that was then covered (Perkin Elmer Topseal) and shaken on plate shaker for 10 min. Luminescence was measured on a HTS Topcount (Perkin Elmer). Within an experiment, the results for each treatment were the mean of 2 replicate wells. For initial screening purposes, compounds were tested using a 9 point dilution curve (serial 1:3 dilutions). For each experiment, controls (containing no drug) and a blank incubation (containing cells read at the time of compound addition) were run in parallel. The blank value was subtracted from all control and sample values. For each sample, the mean value for cell growth (in relative light units) was expressed as a percentage of the mean value for cell growth of the control.

[3] = system: KMS12-BM cells; experiment: Antiproliferative activity on KMS12-BM (NIK WT) multiple myeloma cells (CellTiter-Glo); type: cell-based, human; conditions: KMS12-BM (NIK WT) cells, 96 hr, averaged values, read-out: KMS-12 Proliferation inhibition (IC50 (nM))
Experimental: as §1, §2

[4] = target: recombinant human NF-kappaB-inducing kinase (NIK/MAP3K14) (Homo sapiens (Human), UniProt Q99558); experiment: Inhibition of auto-phosphorylation of recombinant human NIK/MAP3K14 activity (AlphaScreen); type: biochemical; conditions: averaged values over all measurements on all batches
Experimental: Inhibition of auto-phosphorylation of recombinant human NF-kappaB-inducing kinase (NIK/MAP3K14) activity (AlphaScreen®)
NIK/MAP3K14 auto-phosphorylation activity was measured using the AlphaScreen® (αscreen) format (Perkin Elmer). All compounds tested were dissolved in dimethyl sulfoxide (DMSO) and further dilutions were made in assay buffer. Final DMSO concentration was 1% (v/v) in assays. Assay buffer was 50 mM Tris pH 7.5 containing 1 mM EGTA (ethylene glycol tetraacetic acid), 1 mM DTT (dithiothreitol), 0.1 mM Na3VO4, 5 mM MgCl2, 0.01% Tween® 20. Assays were carried out in 384 well Alphaplates (Perkin Elmer). Incubations consisted of compound, 25 microM Adenosine-5′-triphosphate (ATP), and 0.2 nM NIK/MAP3K14. Incubations were initiated by addition of GST-tagged NIK/MAP3K14 enzyme, carried out for 1 h at 25° C. and terminated by addition of stop buffer containing anti-phospho-IKK Ser176/180 antibody. Protein A Acceptor and Glutathione-Donor beads were added before reading using an EnVision® Multilabel Plate Reader (Perkin Elmer). Signal obtained in the wells containing blank samples was subtracted from all other wells and IC50's were determined by fitting a sigmoidal curve to % inhibition of control versus Log10 compound concentration.

[5] = Homo sapiens, L-363, L363 cells

Chain of recombinant human NF-kappaB-inducing kinase (NIK/MAP3K14) (Q99558 whole entry): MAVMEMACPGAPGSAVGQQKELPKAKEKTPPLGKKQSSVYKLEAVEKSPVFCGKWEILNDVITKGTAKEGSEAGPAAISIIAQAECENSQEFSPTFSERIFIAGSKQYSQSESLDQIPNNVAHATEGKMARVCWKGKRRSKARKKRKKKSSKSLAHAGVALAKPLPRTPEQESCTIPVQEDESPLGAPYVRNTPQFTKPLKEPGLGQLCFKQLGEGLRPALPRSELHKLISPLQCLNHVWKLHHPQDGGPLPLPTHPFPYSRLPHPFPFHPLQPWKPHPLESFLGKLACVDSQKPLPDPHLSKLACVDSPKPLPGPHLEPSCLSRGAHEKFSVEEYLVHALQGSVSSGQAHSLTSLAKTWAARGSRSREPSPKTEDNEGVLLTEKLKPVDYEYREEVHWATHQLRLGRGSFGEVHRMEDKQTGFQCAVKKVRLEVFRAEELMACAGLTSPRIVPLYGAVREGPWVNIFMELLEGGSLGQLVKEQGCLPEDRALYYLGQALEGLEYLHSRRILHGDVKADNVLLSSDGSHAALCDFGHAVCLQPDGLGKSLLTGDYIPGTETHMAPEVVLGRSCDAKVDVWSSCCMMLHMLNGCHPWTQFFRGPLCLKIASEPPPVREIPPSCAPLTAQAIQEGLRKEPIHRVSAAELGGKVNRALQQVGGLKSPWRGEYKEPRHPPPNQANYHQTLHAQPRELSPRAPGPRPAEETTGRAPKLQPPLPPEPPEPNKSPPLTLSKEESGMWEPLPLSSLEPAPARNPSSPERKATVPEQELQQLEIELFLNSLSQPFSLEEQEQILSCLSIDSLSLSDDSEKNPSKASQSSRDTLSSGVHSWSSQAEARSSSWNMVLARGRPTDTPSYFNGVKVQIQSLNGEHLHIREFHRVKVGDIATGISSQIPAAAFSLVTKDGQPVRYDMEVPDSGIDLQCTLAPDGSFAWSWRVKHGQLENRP

Row | SMILES | IC50 [1, 5] [nM] | IC50 ([2]; Homo sapiens, JJN-3, 96 h) [nM] | IC50 ([3]; Homo sapiens, KMS-12-BM, 96 h) [nM] | IC50 [4] [nM] | IC50 ([1]; L363 cells) [nM] | IC50 [2] [nM] | IC50 [3] [nM]
1 | CNC(=O)c1cc(Nc2nccc(-c3cc(C#N)c4c(c3)[C@@](C)(CO)CN4)n2)n(CC(C)C)n1 [Compound 219] | 100 | 214 | – | 9.5 | – | – | –
2 | CN(C)C(=O)Cn1nc(Cl)cc1Nc1nccc(-c2cc(C#N)c3c(c2)[C@@](C)(CO)CN3)n1 [Compound 116] | 269 | – | – | 9.3 | – | – | –
3 | Cc1cc(Nc2nccc(-c3cc(C#N)c4c(c3)[C@@](C)(CO)CN4)n2)n(CC2CCN(CC(=O)O)CC2)n1 [Compound 214] | 2630 | – | – | 18.6 | – | – | –
4 | CC(C)n1nc(C(=O)N(C)C2CC2)cc1Nc1nccc(-c2cc(C#N)c3c(c2)[C@@](C)(CO)CN3)n1 [Compound 211] | 204 | – | – | 14.8 | – | – | –
5 | Cn1ccc(Nc2nccc(-c3cc(C#N)c4c(c3)[C@](C)(CN)CN4)n2)n1 [Compound 223] | – | – | – | 224 | 269 | – | –
6 | Cn1ccc(Nc2nccc(-c3cc(C#N)c4c(c3)[C@@](C)(CN)CN4)n2)n1 [Compound 222] | 15 | – | – | 12 | – | – | –
7 | C[C@]1(CO)CNc2c(C#N)cc(-c3ccnc(Nc4cn(CC(F)F)nc4C(=O)N4CCCC4)n3)cc21 [Compound 189] | 51 | – | – | 17 | – | – | –
8 | Cc1cc(Nc2nccc(-c3cc(C#N)c4c(c3)[C@@](C)(CO)CN4)n2)n(CC2CCN(C)C(=O)C2)n1 (mixture of isomers) [Compound 171] | 1440 | – | – | 6.2 | – | – | –
9 | Cc1cc(Nc2nccc(-c3cc(C#N)c4c(c3)[C@@](C)(CO)CN4)n2)n(CC(=O)N2CCCCC2)n1 [Compound 179] | – | 832 | ~10000 | 6.2 | – | – | –
10 | Cc1cc(Nc2nccc(-c3cc(C#N)c4c(c3)[C@@](C)(CO)CN4)n2)n(CC(=O)N(C)C(C)C)n1 [Compound 79] | – | 2240 | > 10000 | 8.3 | – | – | –
11 | Cc1cc(Nc2nccc(-c3cc(C#N)c4c(c3)[C@@](C)(CO)CN4)n2)n(CC(=O)N(C)C)n1 [Compound 206] | 31 | – | – | 2.9 | – | – | –
12 | Cn1ccc(Nc2ncnc(-c3cc(C#N)c4c(c3)C(C)(CO)CN4)n2)n1 (stereo not shown) [Compound 216] | – | 537 | 2630 | 7.8 | – | – | –
13 | Cc1cc(Nc2nccc(-c3cc(C#N)c4c(c3)[C@@](C)(CO)CN4)n2)n(CC2CCn3ccnc3C2)n1 (mixture of isomers) [Compound 202] | 1950 | – | – | 7.2 | – | – | –
14 | Cn1ccc(Nc2ncc(F)c(-c3cc(C#N)c4c(c3)C(C)(CO)CN4)n2)n1 (stereo not shown) [Compound 143] | – | ~81 | 204 | 1.3 | – | – | –

Next, values leading:

Row | IC50 [1, 5] [nM] | IC50 ([2]; Homo sapiens, JJN-3, 96 h) [nM] | IC50 ([3]; Homo sapiens, KMS-12-BM, 96 h) [nM] | IC50 [4] [nM] | IC50 ([1]; L363 cells) [nM] | IC50 [2] [nM] | IC50 [3] [nM] | SMILES
15 | 29 | 407 | > 10000 | 3.1 | – | – | – | CC(C)Oc1c(Nc2nccc(-c3cc(C#N)c4c(c3)[C@@](C)(CO)CN4)n2)cnn1C [Compound 194]
16 | 3490 | – | – | 168 | – | – | – | CN1CCOCC1c1cc(Nc2nccc(-c3cc(C#N)c4c(c3)[C@@](C)(CO)CN4)n2)nn1C (mixture of isomers) [Compound 215]
17 | 4470 | – | – | 107 | – | – | – | Cn1ncc(Nc2nccc(-c3cc(C#N)c4c(c3)[C@@](C)(CO)CN4)n2)c1C(=O)N1CCCC1 [Compound 191]
18 | 11 | 134 | 2090 | – | – | – | – | COCCCn1nc(C)cc1Nc1nccc(-c2cc(C#N)c3c(c2)[C@@](C)(CO)CN3)n1 [Compound 49]
19 | 91 | – | – | 25.1 | – | – | – | Cn1ncc(Nc2nccc(-c3cc(C#N)c4c(c3)[C@@](C)(CO)CN4)n2)c1OC1COC1 [Compound 193]
20 | 110 | – | – | 11.7 | – | – | – | CNC(=O)c1c(Nc2nccc(-c3cc(C#N)c4c(c3)[C@@](C)(CO)CN4)n2)cnn1C [Compound 190]
21 | 93 | – | – | 15.5 | – | – | – | CC(C)Oc1nn(CCN2CCOCC2)cc1Nc1nccc(-c2cc(C#N)c3c(c2)[C@@](C)(CO)CN3)n1 [Compound 207]
22 | 141 | – | – | 28.2 | – | – | – | CN1CCN(Cc2c(Nc3nccc(-c4cc(C#N)c5c(c4)[C@@](C)(CO)CN5)n3)cnn2C)CC1 [Compound 209]
23 | 2 | 112 | ~1740 | – | – | – | – | Cc1nn(C)cc1Nc1nccc(-c2cc(C#N)c3c(c2)C(C)(CO)CN3)n1 (stereo not shown) [Compound 7]
24 | – | 324 | > 10000 | 13 | – | – | – | COCCn1nc(C2CCOCC2)cc1Nc1nccc(-c2cc(C#N)c3c(c2)[C@@](C)(CO)CN3)n1 [Compound 66]
25 | – | 1550 | 5130 | 5.7 | – | – | – | Cn1cc(Nc2nccc(-c3cc(C#N)c4c(c3)[C@@](C)(CO)CN4)n2)c(CN2CCCC2=O)n1 [Compound 90]
26 | – | – | – | 9.8 | – | 457 | 9120 | COC(C)Cn1nc(C)cc1Nc1nccc(-c2cc(C#N)c3c(c2)[C@@](C)(CO)CN3)n1 (single isomer, unassigned) [Compound 78]
27 | – | 324 | 8710 | 4.5 | – | – | – | CCOCCn1nc(C)cc1Nc1nccc(-c2cc(C#N)c3c(c2)[C@@](C)(CO)CN3)n1 [Compound 44]
28 | – | 234 | 933 | 2.6 | – | – | – | Cn1nc(Nc2nccc(-c3cc(C#N)c4c(c3)[C@@](C)(CO)CN4)n2)cc1Cl [Compound 43]
29 | – | 1320 | 4170 | 7.6 | – | – | – | CN(C)C(=O)c1cc(Nc2nccc(-c3cc(C#N)c4c(c3)[C@@](C)(CO)CN4)n2)nn1C [Compound 45]
30 | – | 71 | ~3390 | 1.5 | – | – | – | Cc1csc(Nc2nccc(-c3cc(C#N)c4c(c3)[C@@](C)(CO)CN4)n2)n1 [Compound 145]
31 | – | 457 | ~2950 | 10 | – | – | – | Cn1nc(Nc2nccc(-c3cc(C#N)c4c(c3)C(C)(CO)CN4)n2)cc1C1(C)COC1 (stereo not shown) [Compound 26]
32 | – | 813 | 1020 | 2.9 | – | – | – | CC1(CO)CNc2c(C#N)cc(-c3ccnc(Nc4cc[nH]n4)n3)cc21 (stereo not shown) [Compound 21]
33 | – | 163 | 2720 | 2.2 | – | – | – | Cn1ccc(Nc2nccc(-c3cc(C#N)c4c(c3)[C@@](C)(CO)CN4)n2)n1 [Compound 19]
